Consider three compounds from patent US20080280991A1, “SUBSTITUTED NAPHTHALENES” (AUSPEX PHARMACEUTICALS, INC., priority 2007, published 2008).

For data set [1] the following is noted: in vivo; cited from earlier work.
Data set [2] can be described thus: In vitro liver microsomal stability assay. The class given is in vitro ADME. The settings on record: 1 mg per mL liver microsome protein, NADPH-generating system, 5 microgram per mL compound, 37° C., 0-60 min, LC/MS/MS. On the procedure:
Liver microsomal stability assays are conducted at 1 mg per mL liver microsome protein with an NADPH-generating system in 2% NaHCO3 (2.2 mM NADPH, 25.6 mM glucose 6-phosphate, 6 units per mL glucose 6-phosphate dehydrogenase and 3.3 mM MgCl2). Test compounds are prepared as solutions in 20% acetonitrile-water and added to the assay mixture (final assay concentration 5 microgram per mL) and incubated at 37° C. Final concentration of acetonitrile in the assay should be <1%. Aliquots ([…]) are taken out at times 0, 15, 30, 45, and 60 min, and diluted with ice cold acetonitrile (200 μL) to stop the reactions. Samples are centrifuged at 12,000 RPM for 10 min to precipitate proteins. Supernatants are transferred to microcentrifuge tubes and stored for LC/MS/MS analysis of the degradation half-life of the test compounds. […] For example, the degradation half-life of Example 9 was increased by 20% as compared to non-isotopically enriched agomelatine.

For a further data set, the system named is melatonin receptor. The settings on record: relative to agomelatine; cited from earlier work.

For the compound `COc1ccc2cccc(CCNC(C)=O)c2c1` [agomelatine, N-[2-(7-Methoxy-naphthalen-1-yl)-ethyl]-acetamide], the terminal elimination half-life in data set [1] is 2.3 h.
Regarding `[2H]C([2H])([2H])Oc1ccc2cccc(C([2H])([2H])C([2H])([2H])NC(=O)C([2H])([2H])[2H])c2c1` [Example 9, d10-N-[2-(7-Methoxy-naphthalen-1-yl)-ethyl]-acetamide], the “increase in the degradation half-life as compared to the non-isotopically enriched drug (agomelatine)” value in data set [2] was 20%.
Take `CC(=O)NCCc1cccc2ccc(O)cc12` [S 21517]: the “fold less potency for the melatonin receptor than the parent compound (agomelatine)” value in the data set on melatonin receptor was 100 fold.
